Where two headings read alike, the source gives them in different places.
Assays:
Type in all cases: cell-based
[1] = target: T1, pERK1/2 (Thr202/Tyr204), NCI-1H441 (KRAS G12V) (Homo sapiens, UniProt P01116, G12V); test: Assay of intracellular pERK1/2 (Thr202/Tyr204) phosphorylation in NCI-H441 cells (KRAS G12V)
T1 construct: pERK1/2 HTRF read-out
In short: (§1)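 HTRF detection of Thr202/Tyr204-phosphorylated ERK1/2 (665/615 nm ratio) in lysates from cells treated 2 days with serially 3-fold diluted compound.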

[2] = target: T2, pERK1/2 (Thr202/Tyr204), NCI-1H358 (KRAS G12C) (Homo sapiens, UniProt P01116, G12C); test: Assay of intracellular pERK1/2 (Thr202/Tyr204) phosphorylation in NCI-H358 cells (KRAS G12C)
T2 construct: pERK1/2 HTRF read-out
T2 sequence (P01116 1-188 isoform P01116-2 G12C): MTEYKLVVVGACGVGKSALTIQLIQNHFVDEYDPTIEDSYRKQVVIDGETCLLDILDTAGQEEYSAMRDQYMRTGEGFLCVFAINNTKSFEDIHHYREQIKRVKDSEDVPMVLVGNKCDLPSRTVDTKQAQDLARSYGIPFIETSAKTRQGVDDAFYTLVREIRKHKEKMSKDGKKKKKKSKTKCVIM
In short: as §1

[3] = target: T3, pERK1/2 (Thr202/Tyr204), PANC-1 (KRAS G121D) (Homo sapiens, UniProt P01116, G12D); test: Assay of intracellular pERK1/2 (Thr202/Tyr204) phosphorylation in PANC-1 cells (KRAS G12D)
T3 construct: pERK1/2 HTRF read-out
T3 sequence (P01116 1-188 isoform P01116-2 G12D): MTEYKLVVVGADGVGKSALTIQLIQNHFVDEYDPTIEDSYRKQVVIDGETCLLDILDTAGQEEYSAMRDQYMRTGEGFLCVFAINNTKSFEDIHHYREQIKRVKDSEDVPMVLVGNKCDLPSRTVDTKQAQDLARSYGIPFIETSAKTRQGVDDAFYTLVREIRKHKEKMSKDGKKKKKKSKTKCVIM
In short: as §1

[4] = pERK1/2, 2 days, read-out: NCI-H441 (KRAS G12V) IC50
[5] = pERK1/2, 2 days, read-out: NCI-H358 (KRAS G12C) IC50
[6] = pERK1/2, 2 days, read-out: PANC-1 (KRAS G12D) IC50

T1 sequence (P01116 1-188 isoform P01116-2 G12V): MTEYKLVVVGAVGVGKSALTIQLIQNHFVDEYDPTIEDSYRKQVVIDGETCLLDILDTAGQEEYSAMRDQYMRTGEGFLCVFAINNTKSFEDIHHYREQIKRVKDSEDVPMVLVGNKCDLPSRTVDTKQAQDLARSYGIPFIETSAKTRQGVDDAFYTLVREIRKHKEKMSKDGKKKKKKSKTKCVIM

Molecule `CNc1ncccc1C(C)N1CCOc2nc(-c3cc(N)c(F)c(C)c3C(F)(F)F)c(F)c3nc(OC[C@@]45CCCN4C[C@H](F)C5)nc1c23` (single isomer, unassigned) [Compound 264, 3-((R or S)-1-(5-(5-amino-4-fluoro-3-methyl-2-(trifluoromethyl)phenyl)-4-fluoro-2-(((2R,7aS)-2-fluorotetrahydro-1H-pyrrolizin-7a(5H)-yl)methoxy)-8,9-dihydro-10H-7-oxa-1,3,6,10-tetraazacyclohepta[de]naphthalen-10-yl)ethyl)-N-methylpyridin-2-amine] has an IC50 [1, 4] greater than 100 nM, an IC50 [2, 5] of 93 nM and an IC50 [3, 6] greater than 100 nM.

With `Cc1cc(N)cc(-c2nc3c4c(nc(OC[C@@]56CCCN5C[C@H](F)C6)nc4c2F)N(C(C)c2cc(F)cnc2N)CCO3)c1C(F)(F)F` (stereo partly drawn) [Compound 173] the IC50 [1, 4] was 0.8 nM, the IC50 [2, 5] was 0.5 nM and the IC50 [3, 6] was 7 nM.

`CCc1c(F)ccc2cc(O)cc(-c3nc4c5c(nc(OCC6(CN(C)C7CC7)CC6)nc5c3F)N(C(C)c3cccnc3N)[C@@H](C)CO4)c12` (stereo partly drawn) [Compound 397] showed an IC50 [1, 4] of 0.8 nM, an IC50 [2, 5] of less than 0.457 nM and an IC50 [3, 6] of 0.7 nM.

For `Cc1cc(N)cc(-c2nc3c4c(nc(OC[C@@H]5CCCN5C5COC5)nc4c2F)N(C(C)c2cccnc2N)CCO3)c1C(F)(F)F` (stereo partly drawn) [Compound 123], the IC50 [1, 4] was 4 nM, the IC50 [2, 5] was 2 nM and the IC50 [3, 6] was greater than 100 nM.

`Cc1cc2[nH]ncc2c(-c2nc3c4c(nc(OC[C@@]56CCCN5C[C@H](F)C6)nc4c2F)N(C(C)c2cccnc2N)[C@@H](C)CO3)c1Cl` (stereo partly drawn) [Compound 313] gave an IC50 [1, 4] of 1 nM, an IC50 [2, 5] of 0.5 nM and an IC50 [3, 6] of 3 nM.

`Cc1cc2[nH]ncc2c(-c2nc3c4c(nc(OC[C@@]56CCCN5C[C@H](F)C6)nc4c2F)N([C@H](C)c2cccnc2N)[C@@H](C2CC2)CO3)c1C(F)(F)F` [Compound 390] was tested, and the IC50 [1, 4] was 31 nM, the IC50 [2, 5] was 11 nM and the IC50 [3, 6] was greater than 100 nM.

`[2H]C1([2H])CC[C@@]2(COc3nc4c5c(nc(-c6cc(N)c(F)c(C)c6C(F)(F)F)c(F)c5n3)OCCN4C(C)c3cccnc3N)C[C@@H](F)CN12` (stereo partly drawn) [Compound 150] showed an IC50 [1, 4] of 0.3 nM, an IC50 [2, 5] of 0.2 nM and an IC50 [3, 6] of 1 nM.

Work on `Cc1c(C(F)(F)F)c(-c2cc3nc(OC[C@@]45CCCN4C[C@H](F)C5)nc4c3c(n2)OC[C@H](C)N4C(C)c2cccnc2N)c2c(C)n[nH]c2c1F` (stereo partly drawn) [Compound 383] yielded an IC50 [1, 4] of 0.4 nM, an IC50 [2, 5] of 0.5 nM and an IC50 [3, 6] of 0.4 nM.

`CCC(c1cccnc1N)N1CCOc2nc(-c3cc(N)c(F)c(C)c3C(F)(F)F)c(F)c3nc(OC[C@@]45CCCN4C[C@H](F)C5)nc1c23` (single isomer, unassigned) [Compound 212, 3-((R or S)-1-(5-(5-amino-4-fluoro-3-methyl-2-(trifluoromethyl)phenyl)-4-fluoro-2-(((2R,7aS)-2-fluorotetrahydro-1H-pyrrolizin-7a(5H)-yl)methoxy)-8,9-dihydro-10H-7-oxa-1,3,6,10-tetraazacyclohepta[de]naphthalen-10-yl)propyl)pyridin-2-amine] was tested, and the IC50 [1, 4] was 0.6 nM, the IC50 [2, 5] was 0.3 nM and the IC50 [3, 6] was 6 nM.

`CCc1c(F)ccc2cc(O)cc(-c3nc4c5c(nc(OC[C@@]67CCCN6C[C@H](F)C7)nc5c3F)N(C(C)c3cccnc3N)[C@@H](C)CO4)c12` (single isomer, unassigned) [Compound 279, 4-((S)-10-((R or S)-1-(2-aminopyridin-3-yl)ethyl)-4-fluoro-2-(((2R,7aS)-2-fluorotetrahydro-1H-pyrrolizin-7a(5H)-yl)methoxy)-9-methyl-9,10-dihydro-8H-7-oxa-1,3,6,10-tetraazacyclohepta[de]naphthalen-5-yl)-5-ethyl-6-fluoronaphthalen-2-ol] was tested, and the IC50 [1, 4] was 0.4 nM, the IC50 [2, 5] was 0.3 nM and the IC50 [3, 6] was 0.2 nM.

With `[2H]C([2H])(Oc1nc2c3c(nc(-c4cc(O)cc(Cl)c4C4CC4)c(F)c3n1)OCCN2[C@H](C)c1cccnc1N)[C@@H]1C[C@@H](F)CN1C([2H])([2H])[2H]` (single isomer, unassigned) [Compound 142, 3-(10-((R or S)-1-(2-aminopyridin-3-yl)ethyl)-4-fluoro-2-(((2S,4R)-4-fluoro-1-(methyl-d3)pyrrolidin-2-yl)methoxy-d2)-9,10-dihydro-8H-7-oxa-1,3,6,10-tetraazacyclohepta[de]naphthalen-5-yl)-5-chloro-4-cyclopropylphenyl] the IC50 [1, 4] was greater than 100 nM, the IC50 [2, 5] was greater than 100 nM and the IC50 [3, 6] was greater than 100 nM.

`Cc1c(F)c(N)cc(-c2nc3c4c(nc(OC[C@@]56CCCN5C[C@H](F)C6)nc4c2F)N(C(C)c2cccnc2N)[C@@H](C)CO3)c1C(F)(F)F` (single isomer, unassigned) [Compound 250, 3-((R or S)-1-((S)-5-(5-amino-4-fluoro-3-methyl-2-(trifluoromethyl)phenyl)-4-fluoro-2-(((2R,7aS)-2-fluorotetrahydro-1H-pyrrolizin-7a(5H)-yl)methoxy)-9-methyl-8,9-dihydro-10H-7-oxa-1,3,6,10-tetraazacyclohepta[de]naphthalen-10-yl)ethyl)pyridin-2-amine] gave an IC50 [1, 4] of 0.3 nM, an IC50 [2, 5] of 0.1 nM and an IC50 [3, 6] of 0.4 nM.

`CC(c1cccnc1N)N1CCOc2nc(-c3cc(O)cc4ccc(F)c(F)c34)c(F)c3nc(OC[C@@H]4CCCN4C)nc1c23` (stereo partly drawn) [Compound 6] gave an IC50 [1, 4] of 17 nM, an IC50 [2, 5] of 4 nM and an IC50 [3, 6] of 136 nM.

For `CC(c1cccnc1N)N1CCOc2nc(-c3cc(O)cc(Cl)c3C3CC3)c(F)c3nc(OC[C@@H]4CC(F)(F)CN4C)nc1c23` (single isomer, unassigned) [Compound 55, 3-(10-((R or S)-1-(2-aminopyridin-3-yl)ethyl)-2-(((S)-4,4-difluoro-1-methylpyrrolidin-2-yl)methoxy)-4-fluoro-9,10-dihydro-8H-7-oxa-1,3,6,10-tetraazacyclohepta[de]naphthalen-5-yl)-5-chloro-4-cyclopropylphenol], the IC50 [1, 4] was 511 nM, the IC50 [2, 5] was 322 nM and the IC50 [3, 6] was greater than 1000 nM.

Work on `Cc1c(F)c(N)cc(-c2nc3c4c(nc(OC[C@@]56CCCN5C[C@H](F)C6)nc4c2F)N(C2CCNC2)CCO3)c1C(F)(F)F` (stereo partly drawn) [Compound 198] yielded an IC50 [1, 4] greater than 100 nM, an IC50 [2, 5] greater than 100 nM and an IC50 [3, 6] greater than 100 nM.

For `CCc1c(F)ccc2cc(OC(=O)N3CCOCC3)cc(-c3nc4c5c(nc(OC[C@@]67CCCN6C[C@H](F)C7)nc5c3F)N(C(C)c3cccnc3N)[C@@H](C)CO4)c12` (stereo partly drawn) [Compound 307], the IC50 ([1]; read-out: NCI-H441 (KRAS G12V) IC50, pERK1/2, 2 days) was 23 nM, the IC50 ([2]; read-out: NCI-H358 (KRAS G12C) IC50, pERK1/2, 2 days) was 13 nM and the IC50 ([3]; read-out: PANC-1 (KRAS G12D) IC50, pERK1/2, 2 days) was 16 nM.

In the case of `CC(c1cccnc1N)N1CCOc2nc(-c3cc(N)c(F)c(Cl)c3C(F)(F)F)c(F)c3nc(OCC45CC(F)CN4CC(F)C5)nc1c23` (single isomer, unassigned; diastereomer 1) [Compound 245, (*)3-(1-(5-(5-amino-3-chloro-4-fluoro-2-(trifluoromethyl)phenyl)-2-(((2R or 2S,6R or 6S)-2,6-difluorotetrahydro-1H-pyrrolizin-7a(5H)-yl)methoxy)-4-fluoro-8,9-dihydro-10H-7-oxa-1,3,6,10-tetraazacyclohepta[de]naphthalen-10-yl)ethyl)pyridin-2-amine (diastereomer 1)], the IC50 [1, 4] is reported as 0.5 nM, the IC50 [2, 5] is reported as 0.2 nM and the IC50 [3, 6] is reported as 10 nM.

`Cc1cc(N)cc(-c2nc3c4c(nc(OC[C@@H]5CCCN5)nc4c2F)N(C(C)c2cccnc2N)CCO3)c1C(F)(F)F` (single isomer, unassigned) [Compound 106] showed an IC50 [1, 4] greater than 100 nM, an IC50 [2, 5] greater than 100 nM and an IC50 [3, 6] greater than 100 nM.

Molecule `Cc1cc2[nH]ncc2c(-c2nc3c4c(nc(OC[C@@]56CCCN5C[C@H](F)C6)nc4c2F)N(C(C)c2cc(Cl)cnc2N)[C@@H](C)CO3)c1C(F)(F)F` (stereo partly drawn) [Compound 334, (*)5-Chloro-3-(1-((9S)-4-fluoro-2-(((2R,7aS)-2-fluorotetrahydro-1H-pyrrolizin-7a(5H)-yl)methoxy)-9-methyl-5-(6-methyl-5-(trifluoromethyl)-1H-indazol-4-yl)-8,9-dihydro-1OH-7-oxa-1,3,6,10-tetraazacyclohepta[de]naphthalen-10-yl)ethyl)pyridin-2-amine] has an IC50 [1, 4] of 0.5 nM, an IC50 [2, 5] of 0.3 nM and an IC50 [3, 6] of 0.6 nM.

Work on `CC(c1cccnc1N)N1CCOc2nc(-c3cc(O)cc4ccc(F)c(F)c34)c(F)c3nc(OC[C@@H]4CCCN4C)nc1c23` (single isomer, unassigned) [Compound 42, 4-(10-((R or S)-1-(2-aminopyridin-3-yl)ethyl)-4-fluoro-2-(((S)-1-methylpyrrolidin-2-yl)methoxy)-9,10-dihydro-8H-7-oxa-1,3,6,10-tetraazacyclohepta[de]naphthalen-5-yl)-5,6-difluoronaphthalen-2-ol] yielded an IC50 [1, 4] of 5 nM, an IC50 [2, 5] of 0.9 nM and an IC50 [3, 6] of 69 nM.

In the case of `Cc1cc(N)cc(-c2nc3c4c(nc(OC[C@@H]5CCCN5C)nc4c2F)N(C(C)c2cccnc2N)CCO3)c1C(F)(F)F` (single isomer, unassigned) [Compound 77, 3-((R or S)-1-(5-(5-amino-3-methyl-2-(trifluoromethyl)phenyl)-4-fluoro-2-(((S)-1-methylpyrrolidin-2-yl)methoxy)-8,9-dihydro-10H-7-oxa-1,3,6,10-tetraazacyclohepta[de]naphthalen-10-yl)ethyl)pyridin-2-amine], the IC50 [1, 4] is reported as 37 nM, the IC50 [2, 5] is reported as 38 nM and the IC50 [3, 6] is reported as greater than 100 nM.

`CC(c1cccnc1N)N1CCOc2nc(-c3cc(N)c(F)c(Cl)c3Cl)c(F)c3nc(OC[C@@]45CCCN4C[C@H](F)C5)nc1c23` (stereo partly drawn) [Compound 233] was tested, and the IC50 [1, 4] was 3 nM, the IC50 [2, 5] was 1 nM and the IC50 [3, 6] was 32 nM.
